Test results taken from patent US8735412B2, “Sulfoximine-substituted anilinopyrimidine derivatives as CDK inhibitors, the production thereof, and use as medicine” (Bayer Intellectual Property GmbH, priority 2008, dated 2014).

Key:
[1] = target: T1, VEGF receptor tyrosine kinase-2 (Homo sapiens, UniProt P35968); assay: VEGF receptor-2 kinase assay (Assay 3); assay type: biochemical; settings: 8 μM ATP, poly-(Glu4Tyr) substrate; read-out: VEGF-R2 (Assay 3) Concentration for 50% inhibition of enzyme activity, IC50
T1 construct: GST; made in house; host or cells: baculovirus-infected insect cells (Sf9)
Protocol: 10.3 Assay 3: VEGF Receptor-2 Kinase Assay
Recombinant VEGF receptor tyrosine kinase-2 was purified as GST fusion protein from baculovirus-infected insect cells (Sf9). Poly-(Glu4Tyr), used as kinase substrate, was purchased from the company Sigma.
VEGF receptor tyrosine kinase (90 ng/measuring point) was incubated for 10 min at 22° C. in the presence of various concentrations of test substances (0 μM, and within the range 0.001-30 μM) in 30 μl assay buffer [40 mM Tris/HCl pH5.5, 10 mM MgCl2, 1 mM MnCl2, 3 μM Na ortho-vanadate, 1.0 mM dithiothreitol, 8 μM adenosine triphosphate (ATP), 0.96 μg/measuring point poly-(Glu4Tyr), 0.2 μCi/measuring point ^33P-gamma ATP, 1.4% dimethylsulfoxide]. The reaction was stopped by adding EDTA solution (250 mM, pH8.0, 15 μl/measuring point).
(§1) From each reaction mixture, 15 μl was applied to P30 filter strips (from Wallac), and unincorporated ^33P-ATP was removed by washing the filter strips three times, for 10 min each time, in 0.5% phosphoric acid. After drying the filter strips for 1 hour at 70° C., the filter strips were covered with scintillator strips (MeltiLex™ A, from Wallac) and stoved for 1 hour at 90° C. The amount of incorporated ^33P (substrate phosphorylation) was determined by scintillation measurement in a gamma-radiation measuring instrument (Wallac). The measured data were standardized to 0% inhibition (enzyme reaction without inhibitor) and 100% inhibition (all assay components except enzyme). The IC50 values were determined by means of a 4-parameter fit using the company's own software.

CDK1/CycB = target: T2, CDK1/CycB (Homo sapiens, UniProt P06493); assay: CDK1/CycB kinase assay (Assay 1); assay type: biochemical; settings: 0.5 μM ATP, histon IIIS substrate; read-out: CDK1/CycB (Assay 1) Concentration for 50% inhibition of enzyme activity, IC50
T2 construct: purchased ProQinase GmbH, Freiburg; host or cells: baculovirus-infected insect cells (Sf9)
Protocol: 10.1 Assay 1: CDK1/CycB Kinase Assay
Recombinant CDK1 and CycB-GST fusion proteins, purified from baculovirus-infected insect cells (Sf9), were purchased from ProQinase GmbH, Freiburg. The histon IIIS used as kinase substrate is commercially available from the company Sigma.
CDK1/CycB (200 ng/measuring point) was incubated for 10 min at 22° C. in the presence of various concentrations of test substances (0 μM, and within the range 0.01-100 μM) in assay buffer [50 mM Tris/HCl pH8.0, 10 mM MgCl2, 0.1 mM Na ortho-vanadate, 1.0 mM dithiothreitol, 0.5 μM adenosine triphosphate (ATP), 10 μg/measuring point histon IIIS, 0.2 μCi/measuring point ^33P-gamma ATP, 0.05% NP40, 1.25% dimethylsulfoxide]. The reaction was stopped by adding EDTA solution (250 mM, pH8.0, 15 μl/measuring point).
as §1

T1 sequence (P35968 20-1356): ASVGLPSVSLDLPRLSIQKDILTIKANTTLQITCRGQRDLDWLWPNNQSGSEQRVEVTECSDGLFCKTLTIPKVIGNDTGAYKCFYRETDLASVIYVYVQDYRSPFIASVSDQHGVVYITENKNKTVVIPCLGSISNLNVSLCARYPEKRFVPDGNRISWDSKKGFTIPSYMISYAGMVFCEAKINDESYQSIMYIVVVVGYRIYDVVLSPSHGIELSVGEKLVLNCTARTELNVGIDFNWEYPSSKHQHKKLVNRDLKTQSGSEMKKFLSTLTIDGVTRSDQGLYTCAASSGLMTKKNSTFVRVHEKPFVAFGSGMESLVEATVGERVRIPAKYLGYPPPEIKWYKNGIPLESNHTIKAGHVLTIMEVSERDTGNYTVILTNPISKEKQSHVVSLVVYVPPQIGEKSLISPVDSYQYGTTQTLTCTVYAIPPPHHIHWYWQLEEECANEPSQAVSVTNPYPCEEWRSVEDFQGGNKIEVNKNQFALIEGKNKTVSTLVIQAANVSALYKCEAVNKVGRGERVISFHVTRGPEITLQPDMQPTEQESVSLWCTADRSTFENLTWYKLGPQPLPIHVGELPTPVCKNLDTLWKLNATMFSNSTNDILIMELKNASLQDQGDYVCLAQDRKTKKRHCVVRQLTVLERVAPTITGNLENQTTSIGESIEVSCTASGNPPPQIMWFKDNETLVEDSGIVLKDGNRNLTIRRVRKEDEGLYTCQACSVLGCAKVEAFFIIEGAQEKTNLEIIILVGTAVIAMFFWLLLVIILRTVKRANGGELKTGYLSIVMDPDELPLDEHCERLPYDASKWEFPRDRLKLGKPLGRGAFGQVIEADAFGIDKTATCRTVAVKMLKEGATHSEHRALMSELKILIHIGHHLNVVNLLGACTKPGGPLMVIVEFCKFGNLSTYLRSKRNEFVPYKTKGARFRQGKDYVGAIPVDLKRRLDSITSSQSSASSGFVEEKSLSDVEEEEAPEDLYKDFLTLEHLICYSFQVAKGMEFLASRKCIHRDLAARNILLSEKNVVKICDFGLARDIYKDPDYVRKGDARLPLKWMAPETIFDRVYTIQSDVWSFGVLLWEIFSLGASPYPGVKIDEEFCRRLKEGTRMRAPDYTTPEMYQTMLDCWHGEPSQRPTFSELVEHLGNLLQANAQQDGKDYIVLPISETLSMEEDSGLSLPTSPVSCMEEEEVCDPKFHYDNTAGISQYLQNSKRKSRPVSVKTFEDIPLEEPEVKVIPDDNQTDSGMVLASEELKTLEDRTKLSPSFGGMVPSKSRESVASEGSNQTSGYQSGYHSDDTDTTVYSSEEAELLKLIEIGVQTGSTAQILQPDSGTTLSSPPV
T2 sequence (P06493 whole entry): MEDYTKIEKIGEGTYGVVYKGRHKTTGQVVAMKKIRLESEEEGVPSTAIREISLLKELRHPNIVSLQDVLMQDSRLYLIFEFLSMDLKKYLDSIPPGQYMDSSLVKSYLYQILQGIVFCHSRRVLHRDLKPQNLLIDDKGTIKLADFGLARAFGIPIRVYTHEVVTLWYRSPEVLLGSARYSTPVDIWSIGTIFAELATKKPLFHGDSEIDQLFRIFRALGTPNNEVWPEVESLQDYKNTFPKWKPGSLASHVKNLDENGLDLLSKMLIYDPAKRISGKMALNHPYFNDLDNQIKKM
T2 sequence (P14635 whole entry partner): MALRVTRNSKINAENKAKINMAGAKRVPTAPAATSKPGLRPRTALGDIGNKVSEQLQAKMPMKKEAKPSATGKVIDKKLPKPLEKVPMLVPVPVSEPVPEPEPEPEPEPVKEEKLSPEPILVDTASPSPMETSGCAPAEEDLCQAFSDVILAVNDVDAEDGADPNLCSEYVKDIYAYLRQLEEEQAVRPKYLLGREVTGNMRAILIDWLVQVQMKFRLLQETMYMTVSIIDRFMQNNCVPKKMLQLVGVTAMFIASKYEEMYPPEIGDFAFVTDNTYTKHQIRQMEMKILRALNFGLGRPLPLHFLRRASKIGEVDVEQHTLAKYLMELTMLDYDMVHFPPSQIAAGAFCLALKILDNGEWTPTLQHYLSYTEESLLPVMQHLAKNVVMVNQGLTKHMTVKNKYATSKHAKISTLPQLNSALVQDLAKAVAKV

| SMILES | IC50 [1] [nM] | IC50 (CDK1/CycB) [nM] |
| --- | --- | --- |
| CCS(=N)(=O)c1ccc(Nc2ncc(Br)c(N[C@H](C)[C@@H](C)O)n2)cc1 (stereo partly shown) [Example V12] | 32 | 3 |
| C[C@@H](O)[C@@H](C)Oc1nc(Nc2ccc(S(=N)(=O)C3CC3)cc2)ncc1Br (single isomer, unassigned) [Example V14] | 91 | 4 |
